Experimental data published in the NIST ThermoML archive (doi:10.1016/j.jct.2004.07.014).
Numbers after ± are expanded uncertainties.

Settings: Liquid, Closed cell (Static) method

- vapor or sublimation pressure (305.51 K): 16.47 ± 0.22 kPa
- vapor or sublimation pressure (323.12 K): 33.71 ± 0.25 kPa
- vapor or sublimation pressure (353.13 K): 96.17 ± 0.37 kPa
SMILES: CC#N [acetonitrile]
